≈ marks a conversion by molar mass, not a printed value. Entries after “also recorded” stand apart in the source; their conditions may differ. Structures can show the parent of a compound that is named as a salt. Where two headings read alike, the source gives them in different places. Values belong to the compound of their own block, whether it stands above or below them.
Key:
[1] = In vitro release of drugs from tablets (USP basket procedure, water, 100 rpm, 37° C.); type: physicochemical; settings: for constancy of release: PEO tablets of MW 0.9×10^6, 2×10^6, 4×10^6 (FIGS. 9-14); for effect of drug loading on release: PEO tablets, different drug loadings
Method: A set of tablet punches with flat surfaces were used to prepare tablets of various diameters, including 7 mm, 8.1 mm, 9.5 mm, and 11 mm. They were charged with the formulation, and the compression of 2000 to 4000 pounds was exerted by turning over the machine by hand.
In vitro release of drugs from the different formulation tablets was carried out by using the USP basket procedure in distilled/deionized water at a stirring rate of 100 rpm and 37° C., if not otherwise stated. Theophylline and diltiazem HCl were chosen as model drugs. The release of theophylline and diltiazem HCl was assayed by a HP.backslash.8252A (Hewlett Packard Corporation) diode-array spectrophotometer at 244 nm and 266 nm, respectively. The release kinetic data (up to 60% release) were treated by equation (1) above.
According to the criteria for release kinetics from a swellable matrix (cylindrical shape), zero-order and anomalous transport kinetics are represented by 0.89 <n<1.0 and 0.45<n<0.89, respectively. A linear regression analysis (Microsoft Excel 5.0) of the logarithmic form of equation (1) was carried out with R^2 ≥0.99.
(§1) A set of tablet punches with flat surfaces were used to prepare the tablets having diameters of 11.1 mm and weights of 550 mg except for the sulfathiazole tablets which were 9.5 mm in diameter and weighed 400 mg. All the tablets were compressed to 4000 pounds.
as §1, with “Similarly, FIGS. 10, 12 and 14 show particular drugs used for testing with their typical solubilities. A” for “A”, “The” for “All the”
A set of tablet punches with flat surfaces were used to prepare the tablets having diameters of 11.1 mm and weights of 550 mg except for the sulfathiazole tablets, which were 9.5 mm in diameter and weighed 400 mg. All the tablets were compressed to 4000 pounds per square inch.

[2] = cited from earlier work
[3] = PEO MW 4×10^6, 20% drug loading
[4] = PEO MW 4×10^6, 39% drug loading

Compound: O=C(O)c1ccccc1O [salicylic acid]
release at which profiles from 20% and 39% loaded tablets cross ([1]; PEO MW 2×10^6 (FIG. 31)): about 50%
release kinetics exponent n [1, 3]: 0.72
release kinetics exponent n [1, 4]: 0.81
constancy of release [1]: Constant release rates over the longest period of time

Compound: Cn1c(=O)c2[nH]cnc2n(C)c1=O [theophylline]
solubility ([2]; in water): < 1.0%
release exponent (n) ([1]; PEO MW 0.9×10^6 tablet (FIG. 2)): 0.99 (±0.024)
release exponent (n) ([1]; PEO MW 2×10^6 tablet (FIG. 2)): 0.80 (±0.004)
release exponent (n) ([1]; PEO MW 4×10^6 tablet (FIG. 2)): 0.83 (±0.019)
effect of pH of dissolution medium on release ([1]; PEO tablets (FIG. 3)): not significantly influenced by the pH variation
constancy of release [1]: least constant release; also recorded: constant or near constant release kinetics
effect of drug loading on release [1]: superimposed

release at which profiles from 20% and 39% loaded tablets cross ([1]; PEO MW 4×10^6 (FIG. 31)): about 50%
release kinetics exponent n [1, 3]: 0.78
release kinetics exponent n [1, 4]: 0.94
shape of release profile ([1]; PEO tablets (FIGS. 10, 12, 14)): slightly sigmoidal profile
Compound: Nc1ccc(S(=O)(=O)Nc2nccs2)cc1 [sulfathiazole]
solubility [2]: 590 mg/L (≈ 2310 µM)
constancy of release [1]: Constant release rates over the longest period of time

Compound: O=C(O)Cc1ccccc1Nc1c(Cl)cccc1Cl [diclofenac sodium]
n (release kinetics exponent) ([1]; PEO MW 0.9×10^6, 20% drug loading (FIG. 31)): 0.93
effect of lactose on release kinetics ([1]; PEO MW 4×10^6, 39% drug vs 20% drug and 19% lactose, same total weight (FIG. 6)): superimposable (except for the final stage of release); also recorded: superimposable (except in the final stage of release)
constancy of release [1]: least constant release; also recorded: constant or near constant release kinetics
effect of drug loading on release [1]: did not significantly change

Compound: COc1ccc([C@@H]2Sc3ccccc3N(CCN(C)C)C(=O)[C@@H]2OC(C)=O)cc1 [diltiazem HCl, diltiazem hydrochloride]
solubility ([2]; in water): > 50%

Compound: Nc1ccc(S(=O)(=O)Nc2ncccn2)cc1 [sulfadiazine]
constancy of release [1]: most constant release over the longest period of time

period of release ([1]; PEO MW 4×10^6 (FIG. 14)): relatively short
release kinetics exponent n ([1]; PEO MW 4×10^6 (FIG. 14)): 1.10
Compound: Nc1ccc(S(=O)(=O)Nc2ccccn2)cc1 [sulfapyridine]
effect of 39% versus 20% drug loading on release profile ([1]; PEO tablets (FIG. 31)): shifted to the left of the release profiles from 20% loaded tablets
